Assay results reported in BindingDB's records for doi:10.1016/j.bmc.2008.07.022 (Universidade Federal De Lavras-Ufla, 2008).

Molecular target: cGMP-specific 3',5'-cyclic phosphodiesterase (Homo sapiens, UniProt O76074)
Assay: Inhibition of PDE5

| IC50 [nM] | SMILES |
| --- | --- |
| 100 | CCCCn1c(O)c2n(c1=O)[C@H](c1ccoc1)c1[nH]c3ccccc3c1C2 [(3aR,10R)-2-Butyl-10-furan-3-yl-3a,4,9,10-tetrahydro-2,9,10a-triaza-cyclopenta[b]fluorene-1,3-dione] |
| 20 | CCOc1ccc([C@H]2c3[nH]c4ccccc4c3Cc3c(O)n(Cc4cccnc4)c(=O)n32)cc1 |
| 30 | CCCCn1c(O)c2n(c1=O)[C@H](c1ccsc1)c1[nH]c3ccccc3c1C2 [Cis-2-Butyl-10-thiophen-3-yl-3a,4,9,10-tetrahydro-2,9,10a-triaza-cyclopenta[b]fluorene-1,3-dione] |
| 100 | CCOc1ccc([C@H]2c3[nH]c4ccccc4c3Cc3c(O)n(CCn4cccc4)c(=O)n32)cc1 |
| 20 | CCOc1ccc([C@H]2c3[nH]c4ccccc4c3Cc3c(O)[nH]c(=O)n32)cc1 |
| 30 | CCOc1ccc([C@H]2c3[nH]c4ccccc4c3Cc3c(O)n(CCN(C)C)c(=O)n32)cc1 |
